Assay results published in patent publication US20110207751A1, “HETEROCYCLIC COMPOUNDS AND USES AS ANTICANCER AGENTS” (priority 2010, published 2011).
Counter-ions that a name gives are not always drawn. Like-named read-outs stand apart in the source and are kept apart here.

Tests used:
[1] = test system: tubulin (vinblastine-binding site); test: Spin column assay with [^3H]vinblastine; conditions: tubulin with [^3H]vinblastine and unlabeled competitor, 37° C. 1 h
Method: (§1) Spin column assay. […] The reaction mixtures were incubated at 37° C. for 1 h. The samples were loaded onto Illustra™ MicroSpin™ G-50 columns (GE Healthcare) previously equilibrated with the buffer solution. The columns were placed into 1.5-ml tubes and spun at 750 g for 2 min at room temperature, and radioactivity in the flow-through was analyzed by a scintillation counter.

[2] = test system: MDA-MB-231 cells (human breast cancer cell line); test: Inhibition of cell proliferation, xCelligence cell index; assay type: cell-based; conditions: 72 hr post compound treatment, read-out: calculated IC50
Text: (§2) The biological activity of compounds disclosed herein was monitored and profiled using the Real-Time Cell Electronic Sensing (RT-CES®) system from ACEA Biosciences, Inc. The RT-CES system utilizes cell-substrate impedance technology to monitor cellular behavior inside tissue culture wells in a microtiter plate format. The technology features in the integration of molecular and cell biology with microelectronics and is based on the electronic detection of biological assay process. […]
(§3) For measurement of cell-substrate or cell-electrode impedance using RT-CES technology, microelectrodes having appropriate geometries are fabricated onto the bottom surfaces of microtiter plate or similar device, facing into the wells. […] When there are changes to the biological status of the cells analogue electronic readout signals are measured automatically and in real time, and are converted to digital signals for processing and for analysis. In a RT-CES system, a cell index (arbitrary representation of change in impedance) is automatically derived and provided based on measured electrode impedance values. […]
(§4) To quantify cell status based on the measured cell-electrode impedance, a parameter termed Cell Index is derived. Cell Index is a quantitative measure of the status of the cells in an electrode-containing well. […]

[3] = test system: HepG2 cells (human liver cancer cell line); test: as above; assay type: cell-based; conditions: 72 hr post compound treatment, read-out: calculated IC50
Text: as §2, §3, §4

[4] = test system: tubulin (colchicine-binding site); test: Spin column assay with [^3H]colchicine; conditions: tubulin with [^3H]colchicine and unlabeled competitor, 37° C. 1 h
Method: as §1

[5] = test system: A549 cells; test: Cell-cycle distribution by flow cytometry; assay type: cell-based, human; conditions: 37 nM, 24 hours, vs DMSO only
Method: In addition, we have also tested the effect of COMPOUND O on cell-cycle using flow Cytometry. Briefly, A549 cells were seeded at a density of 400,000 cells/well in 6-well tissue culture plates. Approximately 24 hours later the cells were treated with 37 nM COMPOUND O and allowed to further incubate for 24 hours. The cells were washed in PBS, trypsinized, counted and fixed in ice-cold 70% methanol and stored at 4° C. The cells were washed with PBS, stained with propidium iodide and kept on ice until flow Cytometry analysis.

[6] = test system: NIH 3T3 cells (the normal tissue cell line); test: Inhibition of cell proliferation, xCelligence cell index; assay type: cell-based; conditions: Mus musculus, NIH3T3
Text: as §2, §3, §4

[7] = test system: MCF7 cells (human breast cancer cell line); test: as above; assay type: cell-based; conditions: 72 hr post compound treatment, read-out: calculated IC50
Text: as §2, §3, §4

IC50 [2]: 32.4 nM
IC50 [3]: 25.9 nM
IC50 [7]: 74.4 nM
SMILES: CCc1ccc(Nc2nc(-c3c(C)nc4sccn34)cs2)cc1 [COMPOUND O, 2-(4-ethylphenyl)amino-4-(6-methylimidazo[2,1-b]thiazol-5-yl)-thiazole monohydrobromide]
amount of [^3H]vinblastine in the flow-through [1]: neither colchicine nor COMPOUND O affected the amount of [^3H]vinblastine in the flow-through
amount of [^3H]colchicine in the flow-through [4]: reduced the amount of [^3H]colchicine in the flow-through in a concentration-dependent manner
cell population at G2/M phase [5]: increased significantly
IC50 ([6]; NIH 3T3, 72 hr post compound treatment, read-out: calculated IC50): 6000 nM
IC50 ([6]; NIH-3T3, read-out: IC50): 6000 nM
